Reference: ChEMBL document CHEMBL1201862, “PubChem BioAssay data set” (2004)
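48-hour exposure; five concentrations; linearly interpolated endpoints. GI50 = concentration required for 50% inhibition of growth.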 Activity calls are given as the source filed them. Cut-off read from the data, not from the text of the source: active = GI50 up to about 1.1 µM and inactive = higher.

How the values were obtained:
Experiment in all cases: inhibition of tumour cell growth, NCI panel, 48 h
SF-295 = tested on: SF-295
SW-620 = tested on: SW-620
A498 = tested on: A498
HOP-92 = tested on: HOP-92
LOX IMVI = tested on: LOX IMVI
HL-60 = tested on: HL-60
U-251 = tested on: U-251
NCI-H460 = tested on: NCI-H460
K562 = tested on: K562
HCC 2998 = tested on: HCC 2998
CAKI-1 = tested on: CAKI-1
CCRF-CEM = tested on: CCRF-CEM
SN12C = tested on: SN12C
OVCAR-3 = tested on: OVCAR-3
OVCAR-4 = tested on: OVCAR-4
SK-MEL-2 = tested on: SK-MEL-2

Compound | GI50 (SF-295) | GI50 (SW-620) | GI50 (A498) | GI50 (HOP-92) | GI50 (LOX IMVI) | GI50 (HL-60) | GI50 (U-251) | GI50 (NCI-H460) | GI50 (K562) | GI50 (HCC 2998) | GI50 (CAKI-1) | GI50 (CCRF-CEM) | GI50 (SN12C) | GI50 (OVCAR-3) | GI50 (OVCAR-4) | GI50 (SK-MEL-2)
O=C1N(c2ccccc2)C(=O)C2(SC=NN2Cc2ccccc2)N1c1ccccc1 (stereo unspecified) | > 100 µM (inactive) | > 100 µM (inactive) | > 100 µM (inactive) | > 100 µM (inactive) | > 100 µM (inactive) | 51.2 µM (inactive) | > 100 µM (inactive) | > 100 µM (inactive) | > 100 µM (inactive) | > 100 µM (inactive) | > 100 µM (inactive) | > 100 µM (inactive) | > 100 µM (inactive) | > 100 µM (inactive) | > 100 µM (inactive) | 
O=C(O)CSc1nnc(Cc2ccccc2)[nH]1 | > 100 µM (inactive) | > 100 µM (inactive) |  | > 100 µM (inactive) | > 100 µM (inactive) | > 100 µM (inactive) | > 100 µM (inactive) | > 100 µM (inactive) | > 100 µM (inactive) | > 100 µM (inactive) | > 100 µM (inactive) | > 100 µM (inactive) | > 100 µM (inactive) | > 100 µM (inactive) | > 100 µM (inactive) | > 100 µM (inactive)
Cc1ccc(S(=O)(=O)c2c3nc4ccccc4nc3n3c2[nH]c2ccccc23)cc1 |  | > 100 µM (inactive) | 18.7 µM (inactive) | > 100 µM (inactive) | > 100 µM (inactive) | > 100 µM (inactive) | > 100 µM (inactive) | > 100 µM (inactive) | > 100 µM (inactive) | > 100 µM (inactive) | > 100 µM (inactive) | > 100 µM (inactive) | > 100 µM (inactive) | > 100 µM (inactive) | > 100 µM (inactive) | > 100 µM (inactive)
CCOc1cccc2ccc[n+](CC)c12 | 45.7 µM (inactive) | 81.3 µM (inactive) |  | 61 µM (inactive) | 91.6 µM (inactive) |  |  | 75.7 µM (inactive) | 25.1 µM (inactive) | > 100 µM (inactive) |  | 55.8 µM (inactive) | 53.1 µM (inactive) | 56.1 µM (inactive) | 55.1 µM (inactive) | 
CC1(C)O[C@@H](CCl)C[C@@H](C#N)O1 | > 100 µM (inactive) | > 100 µM (inactive) | > 100 µM (inactive) | > 100 µM (inactive) | > 100 µM (inactive) | > 100 µM (inactive) | > 100 µM (inactive) | > 100 µM (inactive) | > 100 µM (inactive) | > 100 µM (inactive) | > 100 µM (inactive) | > 100 µM (inactive) |  | > 100 µM (inactive) | > 100 µM (inactive) | > 100 µM (inactive)
COC(OC)c1cccc2c1C1(O)CCC3(CC21)OCCCCO3 (stereo unspecified) | > 100 µM (inactive) |  | > 100 µM (inactive) |  | > 100 µM (inactive) | > 100 µM (inactive) | > 100 µM (inactive) | > 100 µM (inactive) | > 100 µM (inactive) | > 100 µM (inactive) | > 100 µM (inactive) | > 100 µM (inactive) | > 100 µM (inactive) | > 100 µM (inactive) | > 100 µM (inactive) | > 100 µM (inactive)
O=C(c1ccccc1)N1CCc2c([nH]c3ccccc23)C1 | 36.6 µM (inactive) | 37.5 µM (inactive) |  | 48.6 µM (inactive) | 88.1 µM (inactive) | 15.7 µM (inactive) | 16.4 µM (inactive) | 41.7 µM (inactive) | 45.4 µM (inactive) | 94.4 µM (inactive) | 28.4 µM (inactive) | 44.6 µM (inactive) | 34 µM (inactive) | 38 µM (inactive) | 53 µM (inactive) | 27.1 µM (inactive)
BrC1=CC=C2NC=CC3=CC=NC1C32 (stereo unspecified) | 8.36 µM (inactive) | 8.95 µM (inactive) | 30.3 µM (inactive) | 15.7 µM (inactive) | 9.55 µM (inactive) | 4.08 µM (inactive) | 7.67 µM (inactive) | 2.75 µM (inactive) | 12.2 µM (inactive) | 35.1 µM (inactive) |  | 6.22 µM (inactive) | 18.6 µM (inactive) | 22 µM (inactive) | 27.7 µM (inactive) | 18.9 µM (inactive)
CNS(=O)(=O)NN(C)S(=O)(=O)c1ccc(OC)cc1 | > 100 µM (inactive) | > 100 µM (inactive) | > 100 µM (inactive) |  | 91.8 µM (inactive) | > 100 µM (inactive) | > 100 µM (inactive) |  | > 100 µM (inactive) | > 100 µM (inactive) | > 100 µM (inactive) | > 100 µM (inactive) | > 100 µM (inactive) |  | > 100 µM (inactive) | > 100 µM (inactive)
CC(C)NC1CCCCC2c3cc(F)ccc3[C@]12O (stereo partly specified) | > 100 µM (inactive) | > 100 µM (inactive) | > 100 µM (inactive) |  | > 100 µM (inactive) | > 100 µM (inactive) | > 100 µM (inactive) | > 100 µM (inactive) | > 100 µM (inactive) | > 100 µM (inactive) | > 100 µM (inactive) | > 100 µM (inactive) | > 100 µM (inactive) | > 100 µM (inactive) | > 100 µM (inactive) | > 100 µM (inactive)
Cc1cc(=O)c2c(O)cc3c(c2o1)CC=C(COC1OC(COC2OC(CO)C(O)C(O)C2O)C(O)C(O)C1O)CO3 (stereo unspecified) | > 100 µM (inactive) | > 100 µM (inactive) |  | > 100 µM (inactive) | > 100 µM (inactive) |  | > 100 µM (inactive) | > 100 µM (inactive) | > 100 µM (inactive) | > 100 µM (inactive) | > 100 µM (inactive) | > 100 µM (inactive) | > 100 µM (inactive) | > 100 µM (inactive) | > 100 µM (inactive) | > 100 µM (inactive)
Nc1ccc(C(=O)NN2C(=O)C(Cl)C2c2ccccc2Cl)cc1 (stereo unspecified) | 2.95 µM (inactive) | 3.46 µM (inactive) |  | 4.48 µM (inactive) | 1.41 µM (inactive) | 1.02 µM (active) | 12.3 µM (inactive) | 4.45 µM (inactive) |  | 16.5 µM (inactive) | 13.9 µM (inactive) | 1.81 µM (inactive) |  | 13.8 µM (inactive) | 13.8 µM (inactive) | 11.3 µM (inactive)
CN1C2C=C(c3ccccc3)CC1CC2 (stereo unspecified) | > 100 µM (inactive) | > 100 µM (inactive) | > 100 µM (inactive) | > 100 µM (inactive) | > 100 µM (inactive) | > 100 µM (inactive) | > 100 µM (inactive) | > 100 µM (inactive) | > 100 µM (inactive) | > 100 µM (inactive) |  | > 100 µM (inactive) | > 100 µM (inactive) | > 100 µM (inactive) |  | > 100 µM (inactive)
CC#C[I+]c1ccccc1 | 69.3 µM (inactive) |  | 60.5 µM (inactive) | 16.4 µM (inactive) | 13.8 µM (inactive) | 15 µM (inactive) | 15 µM (inactive) | 35.5 µM (inactive) | 15.8 µM (inactive) | 20 µM (inactive) | 14.1 µM (inactive) | 4.17 µM (inactive) | 12.3 µM (inactive) | 17.5 µM (inactive) | 17.3 µM (inactive) | 28.1 µM (inactive)
CC1(C)OC(=S)N(c2ccccc2)C12C=Cc1cc3ccccc3nc1S2 (stereo unspecified) |  | > 100 µM (inactive) |  | 40.3 µM (inactive) | 59 µM (inactive) | 40.9 µM (inactive) | > 100 µM (inactive) | 84.9 µM (inactive) | 33.4 µM (inactive) | > 100 µM (inactive) |  | 29.9 µM (inactive) | > 100 µM (inactive) | > 100 µM (inactive) |  | > 100 µM (inactive)
COc1cc2c(oc(=O)c3c4occc4cc(OC)c23)c2cccc(O)c12 | > 100 µM (inactive) | > 100 µM (inactive) | > 100 µM (inactive) | > 100 µM (inactive) | > 100 µM (inactive) | > 100 µM (inactive) | > 100 µM (inactive) | > 100 µM (inactive) | > 100 µM (inactive) | > 100 µM (inactive) | > 100 µM (inactive) | > 100 µM (inactive) | > 100 µM (inactive) | > 100 µM (inactive) | > 100 µM (inactive) | 
Cc1ccc(-c2nnc(-c3nn(-c4ccccc4)c4nc5ccccc5nc34)o2)cc1 | 15.6 µM (inactive) | 35.6 µM (inactive) |  | 7.52 µM (inactive) | 15.7 µM (inactive) | 11 µM (inactive) | 11.8 µM (inactive) | 9.04 µM (inactive) | 11.4 µM (inactive) |  | 11.7 µM (inactive) | 3.59 µM (inactive) | 22.4 µM (inactive) | 14.1 µM (inactive) | 3.01 µM (inactive) | 16 µM (inactive)
CC1(C)C(=NN=C(N)N)C(C)(C)C1=NN=C(N)N | > 100 µM (inactive) | > 100 µM (inactive) |  | > 100 µM (inactive) | > 100 µM (inactive) | > 100 µM (inactive) | > 100 µM (inactive) | > 100 µM (inactive) | > 100 µM (inactive) | > 100 µM (inactive) | > 100 µM (inactive) |  | > 100 µM (inactive) | > 100 µM (inactive) | > 100 µM (inactive) | 
Cn1cnc([N+](=O)[O-])c1SC1=NCCS1 | > 100 µM (inactive) | 47.6 µM (inactive) | > 100 µM (inactive) | 37.4 µM (inactive) | 17.3 µM (inactive) |  | > 100 µM (inactive) | > 100 µM (inactive) | 28 µM (inactive) | > 100 µM (inactive) | > 100 µM (inactive) | 28.2 µM (inactive) | > 100 µM (inactive) | > 100 µM (inactive) | 89.9 µM (inactive) | 47.4 µM (inactive)
N#Cc1cn(-c2c3ccccc3nc3ccccc23)c(=O)[nH]c1=O | 5.83 µM (inactive) | 5.01 µM (inactive) |  | 7.73 µM (inactive) | 5.12 µM (inactive) | 10.6 µM (inactive) | 18 µM (inactive) | 3.55 µM (inactive) | 3.67 µM (inactive) |  | 5.75 µM (inactive) | 7.29 µM (inactive) |  | 8.02 µM (inactive) | 5.14 µM (inactive) | 10.8 µM (inactive)
